Several values for one entry are separate records, joined by “and”; a condition that tells them apart may be missing. Identical values can stand only once. Inconclusive results and toxic doses are left out. Cut-off read from the data, not from the text of the source: active = T/C of 150% or more; inactive = T/C below 125%.
System: L1210 leukemia ip in BDF1 mice, survival T/C
Test: NCI In Vivo Anticancer Drug Screen. Data for tumor model L1210 Leukemia (intraperitoneal) in B6D2F1 (BDF1) mice
Conditions: endpoint: mean survival time, higher = longer survival
Procedure, shortened: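 Value reflects the ratio of survival in compound-treated mice to survival in vehicle-treated controls, with both groups carrying the same transplanted tumor.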

[1] = dose: 100.0 mg/kg/injection, schedule: Q04DX003 (ip), vehicle: Klucel (hydroxypropylcellulose) (HPC)
[2] = dose: 100.0 mg/kg/injection, schedule: Q01DX001 (ip), vehicle: saline with Tween-80
[3] = dose: 100.0 mg/kg/injection, schedule: Q01DX009 (ip), vehicle: saline with Tween-80
[4] = dose: 200.0 mg/kg/injection, schedule: Q01DX001 (ip), vehicle: saline with Tween-80
[5] = dose: 200.0 mg/kg/injection, schedule: Q01DX009 (ip), vehicle: saline with Tween-80
[6] = dose: 400.0 mg/kg/injection, schedule: Q01DX001 (ip), vehicle: saline with Tween-80
[7] = dose: 400.0 mg/kg/injection, schedule: Q01DX009 (ip), vehicle: saline with Tween-80
[8] = dose: 25.0 mg/kg/injection, schedule: Q04DX002 (ip), vehicle: saline
[9] = dose: 50.0 mg/kg/injection, schedule: Q04DX002 (ip), vehicle: saline
[10] = dose: 100.0 mg/kg/injection, schedule: Q04DX002 (ip), vehicle: saline
[11] = dose: 100.0 mg/kg/injection, schedule: Q01DX009 (ip), vehicle: Klucel (hydroxypropylcellulose) (HPC)
[12] = dose: 200.0 mg/kg/injection, schedule: Q01DX009 (ip), vehicle: Klucel (hydroxypropylcellulose) (HPC)
[13] = dose: 200.0 mg/kg/injection, schedule: Q04DX003 (ip), vehicle: Klucel (hydroxypropylcellulose) (HPC)
[14] = dose: 400.0 mg/kg/injection, schedule: Q01DX009 (ip), vehicle: Klucel (hydroxypropylcellulose) (HPC)
[15] = dose: 400.0 mg/kg/injection, schedule: Q04DX003 (ip), vehicle: Klucel (hydroxypropylcellulose) (HPC)
[16] = dose: 100.0 mg/kg/injection, schedule: Q01DX001 (ip), vehicle: saline
[17] = dose: 200.0 mg/kg/injection, schedule: Q01DX001 (ip), vehicle: saline
[18] = dose: 100.0 mg/kg/injection, schedule: Q04DX003 (ip), vehicle: saline with Tween-80
[19] = dose: 200.0 mg/kg/injection, schedule: Q04DX003 (ip), vehicle: saline with Tween-80
[20] = dose: 400.0 mg/kg/injection, schedule: Q04DX003 (ip), vehicle: saline with Tween-80

Measured: T/C

CC(C)(C)C1CCC(NC2=NCCO2)CC1 (stereo unspecified)
inactive: dose: 25.0 mg/kg/injection, schedule: Q01DX001 (ip), vehicle: Klucel (hydroxypropylcellulose) (HPC) 103 % of control | dose: 50.0 mg/kg/injection, schedule: Q01DX001 (ip), vehicle: Klucel (hydroxypropylcellulose) (HPC) 104 % of control | dose: 50.0 mg/kg/injection, schedule: Q04DX003 (ip), vehicle: Klucel (hydroxypropylcellulose) (HPC) 96 % of control | dose: 100.0 mg/kg/injection, schedule: Q01DX001 (ip), vehicle: Klucel (hydroxypropylcellulose) (HPC) 93 % of control and 100 % of control | [1] 102 % of control

CCOc1ccc(NC(=O)Oc2ccc(-c3ccccc3)cc2)cc1
inactive: [2] 93 % of control | [3] 100 % of control and 90 % of control | dose: 100.0 mg/kg/injection, schedule: Q04DX002 (ip), vehicle: saline with Tween-80 104 % of control and 106 % of control | [4] 91 % of control | [5] 87 % of control and 92 % of control | dose: 200.0 mg/kg/injection, schedule: Q04DX002 (ip), vehicle: saline with Tween-80 100 % of control and 101 % of control | [6] 89 % of control | [7] 97 % of control and 87 % of control | dose: 400.0 mg/kg/injection, schedule: Q04DX002 (ip), vehicle: saline with Tween-80 92 % of control

CCCCOCc1cc(CN2CCN(C)CC2)c(O)c2ncccc12
inactive: [8] 89 % of control | [9] 95 % of control | [10] 89 % of control

COC(=O)C(Cc1[nH]cnc1N=Nc1ccc(Br)cc1)NC(C)=O (stereo unspecified)
inactive: [2] 107 % of control | [4] 96 % of control | [6] 96 % of control

CCOC(=O)C(NC(C)=O)C(=O)OCC
inactive: [11] 103 % of control | [1] 107 % of control | [12] 105 % of control | [13] 107 % of control | [14] 107 % of control | [15] 106 % of control

CC(C(O)c1ccc(Br)cc1)C(O)(C(F)(F)F)C(F)(F)F (stereo unspecified)
inactive: dose: 100.0 mg/kg/injection, schedule: Q01DX009 (ip), vehicle: other 111 % of control | dose: 200.0 mg/kg/injection, schedule: Q01DX009 (ip), vehicle: other 97 % of control | dose: 400.0 mg/kg/injection, schedule: Q01DX009 (ip), vehicle: other 103 % of control

O=P(O)(O)/C=C/c1ccccc1
inactive: [16] 97 % of control | [1] 90 % of control | [17] 91 % of control | [13] 98 % of control | dose: 400.0 mg/kg/injection, schedule: Q01DX001 (ip), vehicle: saline 98 % of control

NC(=S)NC(N)=S
inactive: [18] 94 % of control | [19] 96 % of control | [20] 96 % of control

CCCNC(=O)C1C2C=CC(C2)C1C(=O)NCCC (stereo unspecified)
inactive: [18] 91 % of control | [19] 91 % of control | [20] 91 % of control

CN=C(c1ccc(NC(=O)c2ccc(C(=O)Nc3ccc(C(=NC)N(C)C)cc3)c(Cl)c2)cc1)N(C)C
inactive: dose: 0.94 mg/kg/injection, schedule: Q01DX Z (ip), vehicle: saline 98 % of control | dose: 1.88 mg/kg/injection, schedule: Q01DX Z (ip), vehicle: saline 87 % of control

N#CC(Nc1ccccc1)C1CC1c1ccccc1 (stereo unspecified)
inactive: dose: 12.5 mg/kg/injection, schedule: Q01DX009 (ip), vehicle: saline with Tween-80 94 % of control | dose: 12.5 mg/kg/injection, schedule: Q04DX003 (ip), vehicle: saline with Tween-80 98 % of control | dose: 25.0 mg/kg/injection, schedule: Q01DX009 (ip), vehicle: saline with Tween-80 100 % of control | dose: 25.0 mg/kg/injection, schedule: Q04DX003 (ip), vehicle: saline with Tween-80 102 % of control | dose: 50.0 mg/kg/injection, schedule: Q01DX009 (ip), vehicle: saline with Tween-80 95 % of control | dose: 50.0 mg/kg/injection, schedule: Q04DX003 (ip), vehicle: saline with Tween-80 101 % of control

CCCCCCC(=O)N1CCOCC1
inactive: [8] 108 % of control | [9] 101 % of control | [10] 93 % of control and 92 % of control

COc1ccc(Cl)cc1NC(=O)Nc1ccc(Cl)c(Cl)c1
inactive: [11] 95 % of control | [1] 112 % of control | [12] 92 % of control | [13] 89 % of control | [14] 102 % of control | [15] 109 % of control

O=C(Nc1ccc(Cl)cc1C(F)(F)F)OCCOc1ccccc1Cl
inactive: [3] 91 % of control | [5] 95 % of control | [7] 93 % of control

CC(=O)C(C#N)c1c(C)cc(C)cc1C (stereo unspecified)
inactive: dose: 37.5 mg/kg/injection, schedule: Q04DX003 (ip), vehicle: saline 97 % of control | dose: 75.0 mg/kg/injection, schedule: Q01DX001 (ip), vehicle: saline 97 % of control | dose: 75.0 mg/kg/injection, schedule: Q04DX003 (ip), vehicle: saline 92 % of control | dose: 150.0 mg/kg/injection, schedule: Q01DX001 (ip), vehicle: saline 105 % of control | dose: 150.0 mg/kg/injection, schedule: Q04DX003 (ip), vehicle: saline 96 % of control

Cc1ccc(CNc2ccc(F)cc2)cc1
inactive: [3] 94 % of control | [18] 92 % of control | [5] 100 % of control | [19] 102 % of control | [7] 97 % of control | [20] 113 % of control

CCOC(=O)c1c(C)nc(C)c(C(=O)OCC)c1-c1ccc(N(C)C)cc1
inactive: dose: 25.6 mg/kg/injection, schedule: Q04DX002 (ip), vehicle: saline with Tween-80 101 % of control | dose: 64.0 mg/kg/injection, schedule: Q04DX002 (ip), vehicle: saline with Tween-80 97 % of control

CCCCCCCC[As](C)(=O)O
inactive: dose: 6.25 mg/kg/injection, schedule: Q01DX009 (ip), vehicle: saline with Tween-80 89 % of control

C[C@]12CCC(=O)C=C1[C@@H](F)C[C@@H]1[C@@H]2[C@@H](O)C[C@@]2(C)[C@H]1CC[C@]2(O)C(=O)CO
inactive: dose: 25.0 mg/kg/injection, schedule: Q01DX015 (ip), vehicle: carboxymethylcellulose (CMC) 106 % of control | dose: 50.0 mg/kg/injection, schedule: Q01DX015 (ip), vehicle: carboxymethylcellulose (CMC) 96 % of control | dose: 100.0 mg/kg/injection, schedule: Q01DX001 (sc), vehicle: steriod suspending solution 117 % of control | dose: 100.0 mg/kg/injection, schedule: Q01DX015 (ip), vehicle: carboxymethylcellulose (CMC) 110 % of control | dose: 200.0 mg/kg/injection, schedule: Q01DX001 (sc), vehicle: steriod suspending solution 89 % of control | dose: 200.0 mg/kg/injection, schedule: Q01DX015 (ip), vehicle: carboxymethylcellulose (CMC) 98 % of control | dose: 400.0 mg/kg/injection, schedule: Q01DX001 (sc), vehicle: steriod suspending solution 100 % of control | dose: 400.0 mg/kg/injection, schedule: Q01DX015 (ip), vehicle: carboxymethylcellulose (CMC) 86 % of control | dose: 800.0 mg/kg/injection, schedule: Q01DX001 (sc), vehicle: steriod suspending solution 105 % of control | dose: 800.0 mg/kg/injection, schedule: Q01DX015 (ip), vehicle: saline 102 % of control

CCCCCCCC/C=C\CCCCCCCCOB(OCCCCCCCC/C=C/CCCCCCCC)OCCCCCCCC/C=C/CCCCCCCC
inactive: dose: 50.0 mg/kg/injection, schedule: Q01DX001 (ip), vehicle: carboxymethylcellulose (CMC) 96 % of control | dose: 100.0 mg/kg/injection, schedule: Q01DX001 (ip), vehicle: carboxymethylcellulose (CMC) 105 % of control | dose: 200.0 mg/kg/injection, schedule: Q01DX001 (ip), vehicle: carboxymethylcellulose (CMC) 105 % of control | dose: 400.0 mg/kg/injection, schedule: Q01DX001 (ip), vehicle: carboxymethylcellulose (CMC) 102 % of control

COC(=O)/C=C/c1ccc(Cl)cc1
inactive: [11] 98 % of control | [12] 96 % of control | [14] 96 % of control

C[N+](C)(C)/N=C1\CC2CCC1C2 (stereo unspecified)
inactive: [16] 98 % of control | [17] 101 % of control

Nc1cccc2c1-c1ccccc1C2=O
inactive: dose: 50.0 mg/kg/injection, schedule: Q04DX002 (ip), vehicle: Klucel (hydroxypropylcellulose) (HPC) 103 % of control | dose: 100.0 mg/kg/injection, schedule: Q04DX002 (ip), vehicle: Klucel (hydroxypropylcellulose) (HPC) 88 % of control | dose: 200.0 mg/kg/injection, schedule: Q04DX002 (ip), vehicle: Klucel (hydroxypropylcellulose) (HPC) 103 % of control

Source: PubChem BioAssay AID248 (DTP/NCI, 2004)
